Source: ChEMBL document CHEMBL1201862, “PubChem BioAssay data set” (2004)
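The compound was tested at five concentrations on cells cultured in 96-well plates, with a 48-hour exposure period. At the GI50, growth is halved.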 The source made the active and inactive calls. No stated cut-off is given here; in the data, active = GI50 up to about 1.1 µM and inactive = higher. *1 amine or outer side, *2 acyl side, *3 side chain or, on linkers, in order; H or OH if unused. Where a SMILES comes first, the peptide text is derived from it. Bridges are numbered along the chain shown (N, C = ends). Roman numbers before positions name the chains, in order. [ ]: non-standard residue; d: D form. Actinocin(9to1) = Cc1c2oc3c(C)ccc(C(=O)[*:1])c3nc-2c(C(=O)[*:2])c(N)c1=O; NMeV = CN[CH](C(=O)O)C(C)C; Sar = CNCC(=O)O

Assays:
Experiment in all cases: DTP human tumour cell line panel, 48 h
HOP-62 = system: HOP-62
RPMI-8226 = system: RPMI-8226
SR = system: SR
UO-31 = system: UO-31
NCI-H522 = system: NCI-H522
SNB-19 = system: SNB-19
A549 = system: A549
UACC-257 = system: UACC-257
SW-620 = system: SW-620
SF-268 = system: SF-268
SK-MEL-5 = system: SK-MEL-5
OVCAR-5 = system: OVCAR-5
U-251 = system: U-251
OVCAR-8 = system: OVCAR-8
HOP-92 = system: HOP-92
KM12 = system: KM12
UACC-62 = system: UACC-62
K562 = system: K562
SF-539 = system: SF-539
A498 = system: A498

SMILES	GI50 (HOP-62)	GI50 (RPMI-8226)	GI50 (SR)	GI50 (UO-31)	GI50 (NCI-H522)	GI50 (SNB-19)	GI50 (A549)	GI50 (UACC-257)	GI50 (SW-620)	GI50 (SF-268)	GI50 (SK-MEL-5)	GI50 (OVCAR-5)	GI50 (U-251)	GI50 (OVCAR-8)	GI50 (HOP-92)	GI50 (KM12)	GI50 (UACC-62)	GI50 (K562)	GI50 (SF-539)	GI50 (A498)
O=c1[nH]cnc2c(COCCCO)c[nH]c12	> 100 µM (inactive)	> 100 µM (inactive)	> 100 µM (inactive)	> 100 µM (inactive)	> 100 µM (inactive)	> 100 µM (inactive)	> 100 µM (inactive)	> 100 µM (inactive)	> 100 µM (inactive)	> 100 µM (inactive)	> 100 µM (inactive)	61.5 µM (inactive)	> 100 µM (inactive)	> 100 µM (inactive)	> 100 µM (inactive)	> 100 µM (inactive)	> 100 µM (inactive)	> 100 µM (inactive)		
COc1c(CC(C)O)c2c3c(CC(C)O)c(OC)c(=O)c4c(O)cc5c(c6c(cc(O)c(c1=O)c62)OCO5)c43 (stereo unspecified) [CERCOSPORIN]	1.99 µM (inactive)	2.1 µM (inactive)	1.37 µM (inactive)	2.14 µM (inactive)	1.82 µM (inactive)	2.49 µM (inactive)	1.65 µM (inactive)	1.34 µM (inactive)	2.1 µM (inactive)	1.81 µM (inactive)	1.52 µM (inactive)	2.88 µM (inactive)	1.72 µM (inactive)	1.74 µM (inactive)	2.3 µM (inactive)	1.62 µM (inactive)	1.78 µM (inactive)	2 µM (inactive)	2.13 µM (inactive)	
CC1=C2c3ccccc3N(C(=O)/C=C/C(=O)O)[C@H]2[C@H]2C(=O)OC(=O)[C@H]2C1	> 10 µM (inactive)	> 10 µM (inactive)	> 10 µM (inactive)	> 10 µM (inactive)	> 10 µM (inactive)	> 10 µM (inactive)	> 10 µM (inactive)		> 10 µM (inactive)	> 10 µM (inactive)	> 10 µM (inactive)	> 10 µM (inactive)	> 10 µM (inactive)	> 10 µM (inactive)		> 10 µM (inactive)	> 10 µM (inactive)		> 10 µM (inactive)	> 10 µM (inactive)
CC12C3C4C1C1C2C3C41CO (stereo unspecified)			> 100 µM (inactive)	> 100 µM (inactive)		> 100 µM (inactive)	> 100 µM (inactive)	> 100 µM (inactive)	> 100 µM (inactive)		> 100 µM (inactive)	> 100 µM (inactive)	> 100 µM (inactive)	> 100 µM (inactive)	> 100 µM (inactive)	> 100 µM (inactive)	> 100 µM (inactive)	> 100 µM (inactive)	> 100 µM (inactive)	> 100 µM (inactive)
COc1ccc(C(=O)c2c3cc(OC)c(OC)c(OC)c3cc[n+]2C)cc1	28.2 µM (inactive)	10.2 µM (inactive)	14.8 µM (inactive)	26 µM (inactive)	19.2 µM (inactive)	31 µM (inactive)	17.8 µM (inactive)		34.4 µM (inactive)	37.9 µM (inactive)	17.5 µM (inactive)	> 100 µM (inactive)	40 µM (inactive)	35.7 µM (inactive)		30.4 µM (inactive)		20.1 µM (inactive)	> 10 µM (inactive)	36.7 µM (inactive)
OC1(CCc2ccccc2)COC(C(F)(F)F)(C(F)(F)F)C1 (stereo unspecified)	> 100 µM (inactive)	97.3 µM (inactive)	> 100 µM (inactive)	> 100 µM (inactive)	> 100 µM (inactive)	> 100 µM (inactive)	> 100 µM (inactive)		> 100 µM (inactive)	> 100 µM (inactive)	> 100 µM (inactive)	> 100 µM (inactive)	> 100 µM (inactive)	> 100 µM (inactive)		> 100 µM (inactive)	> 100 µM (inactive)	> 100 µM (inactive)	> 100 µM (inactive)	> 100 µM (inactive)
CC(C)N(C(=O)C1(O)c2ccccc2C=Cc2ccccc21)C(C)C	19.2 µM (inactive)	35.9 µM (inactive)	23.3 µM (inactive)	21.1 µM (inactive)	12.5 µM (inactive)	19.9 µM (inactive)	19.9 µM (inactive)		17.3 µM (inactive)	21.5 µM (inactive)	16.3 µM (inactive)	14.4 µM (inactive)	16.8 µM (inactive)	16.9 µM (inactive)		22.9 µM (inactive)	15.4 µM (inactive)		18.7 µM (inactive)	16.3 µM (inactive)
COC1OC2COC1(OC)C1OC(C)(C)OC21 (stereo unspecified)	> 100 µM (inactive)	> 100 µM (inactive)	> 100 µM (inactive)	> 100 µM (inactive)	> 100 µM (inactive)	> 100 µM (inactive)	> 100 µM (inactive)	> 100 µM (inactive)	> 100 µM (inactive)	> 100 µM (inactive)	> 100 µM (inactive)	> 100 µM (inactive)	> 100 µM (inactive)	> 100 µM (inactive)		> 100 µM (inactive)	> 100 µM (inactive)	> 100 µM (inactive)		> 100 µM (inactive)
CN(C)CC(CO)(CN(C)C)CN(C)C	> 100 µM (inactive)	> 100 µM (inactive)	> 100 µM (inactive)	> 100 µM (inactive)	> 100 µM (inactive)	> 100 µM (inactive)	> 100 µM (inactive)	> 100 µM (inactive)	> 100 µM (inactive)	> 100 µM (inactive)	> 100 µM (inactive)	> 100 µM (inactive)	> 100 µM (inactive)	> 100 µM (inactive)	> 100 µM (inactive)	> 100 µM (inactive)	> 100 µM (inactive)	> 100 µM (inactive)	> 100 µM (inactive)	
CN(C)N1C(=O)C(=O)N(c2cccc3ccccc23)C1=O	> 10 µM (inactive)	> 10 µM (inactive)	> 10 µM (inactive)	> 10 µM (inactive)	> 10 µM (inactive)	> 10 µM (inactive)	> 10 µM (inactive)		> 10 µM (inactive)	> 10 µM (inactive)	> 10 µM (inactive)	> 10 µM (inactive)	> 10 µM (inactive)	> 10 µM (inactive)		> 10 µM (inactive)	> 10 µM (inactive)	> 10 µM (inactive)	> 10 µM (inactive)	> 10 µM (inactive)
Cc1c2oc3c(C)ccc(C(=O)NC4C(=O)NC(C(C)O)C(=O)N5CCCC5C(=O)N(C)CC(=O)N(C)C(C(C)C)C(=O)OC4C)c3nc-2c(C(=O)NC2C(=O)NC(C(C)O)C(=O)N3CCCC3C(=O)N(C)CC(=O)N(C)C(C(C)C)C(=O)OC2C)c(N)c1=O (stereo unspecified) (I: TTP[Sar][NMeV] / II: TTP[Sar][NMeV]; ester I:1-I:C, II:1-II:C; linker I:N-II:N via Actinocin(9to1); configuration not given here)	0.498 µM (active)	0.0365 µM (active)	< 0.01 µM (active)	2 µM (inactive)	0.0766 µM (active)	0.147 µM (active)	0.783 µM (active)	0.244 µM (active)	0.067 µM (active)	0.198 µM (active)	0.167 µM (active)	1.95 µM (inactive)	0.0904 µM (active)	0.195 µM (active)		0.185 µM (active)	0.103 µM (active)	0.0448 µM (active)	0.0764 µM (active)	0.774 µM (active)
